Experiments:
[1] = biological target: Serine/threonine-protein kinase VRK2 (Homo sapiens) (UniProt Q86Y07); details: Compound concentration 1000.0 nM
[2] = biological target: TGF-beta receptor type-2 (Homo sapiens) (UniProt P37173); details: Compound concentration 1000.0 nM
[3] = biological target: Cyclin-dependent kinase-like 2 (Homo sapiens) (UniProt Q92772); details: Compound concentration 1000.0 nM
[4] = biological target: Mitogen-activated protein kinase kinase kinase 2 (Homo sapiens) (UniProt Q9Y2U5); details: Compound concentration 1000.0 nM
Mitogen-activated protein kinase kinase kinase 2 (Homo sapiens), sequence (Q9Y2U5 whole entry): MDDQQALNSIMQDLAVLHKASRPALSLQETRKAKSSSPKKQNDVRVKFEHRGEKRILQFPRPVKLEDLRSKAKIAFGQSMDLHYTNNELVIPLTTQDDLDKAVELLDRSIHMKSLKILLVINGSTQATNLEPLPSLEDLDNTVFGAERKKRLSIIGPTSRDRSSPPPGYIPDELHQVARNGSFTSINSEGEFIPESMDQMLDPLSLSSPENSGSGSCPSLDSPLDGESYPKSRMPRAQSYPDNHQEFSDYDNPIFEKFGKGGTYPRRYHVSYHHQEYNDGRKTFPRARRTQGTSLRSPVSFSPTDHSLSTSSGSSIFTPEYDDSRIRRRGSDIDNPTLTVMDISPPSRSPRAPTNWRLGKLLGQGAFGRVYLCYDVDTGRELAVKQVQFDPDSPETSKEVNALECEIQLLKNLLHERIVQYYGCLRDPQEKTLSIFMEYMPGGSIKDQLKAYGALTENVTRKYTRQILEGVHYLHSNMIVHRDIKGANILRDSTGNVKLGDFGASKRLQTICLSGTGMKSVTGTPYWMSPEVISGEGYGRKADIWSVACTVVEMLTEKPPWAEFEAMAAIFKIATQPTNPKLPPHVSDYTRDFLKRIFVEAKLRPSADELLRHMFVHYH

[5] = biological target: Dual specificity mitogen-activated protein kinase kinase 6 (Homo sapiens) (UniProt P52564); details: Compound concentration 1000.0 nM
Dual specificity mitogen-activated protein kinase kinase 6 (Homo sapiens), sequence (P52564 whole entry): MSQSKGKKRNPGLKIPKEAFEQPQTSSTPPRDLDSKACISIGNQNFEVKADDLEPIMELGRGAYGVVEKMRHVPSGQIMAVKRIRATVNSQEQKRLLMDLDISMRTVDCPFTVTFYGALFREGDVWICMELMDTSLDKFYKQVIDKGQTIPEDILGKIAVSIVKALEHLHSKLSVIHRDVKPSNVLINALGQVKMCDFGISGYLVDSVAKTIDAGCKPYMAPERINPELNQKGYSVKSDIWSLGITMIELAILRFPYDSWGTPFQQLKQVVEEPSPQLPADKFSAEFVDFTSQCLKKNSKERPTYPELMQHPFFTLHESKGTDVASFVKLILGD

[6] = biological target: Cyclin-dependent kinase 2 (Homo sapiens) (UniProt P24941); details: Compound concentration 1000.0 nM
[7] = test system: Serine/threonine-protein kinase B-raf (Homo sapiens), P15056 [V600E]; details: Compound concentration 1000.0 nM
[8] = biological target: 5'-AMP-activated protein kinase catalytic subunit alpha-1 (Homo sapiens) (UniProt Q13131); details: Compound concentration 1000.0 nM
[9] = test system: Receptor-type tyrosine-protein kinase FLT3 (Homo sapiens), P36888 [UNDEFINED MUTATION]; details: Compound concentration 1000.0 nM
[10] = biological target: Serine/threonine-protein kinase MRCK gamma (Homo sapiens) (UniProt Q6DT37); details: Compound concentration 1000.0 nM
[11] = biological target: Receptor tyrosine-protein kinase erbB-3 (Homo sapiens) (UniProt P21860); details: Compound concentration 1000.0 nM
[12] = biological target: Calcium/calmodulin-dependent protein kinase type II subunit delta (Homo sapiens) (UniProt Q13557); details: Compound concentration 1000.0 nM
Calcium/calmodulin-dependent protein kinase type II subunit delta (Homo sapiens), sequence (Q13557 whole entry): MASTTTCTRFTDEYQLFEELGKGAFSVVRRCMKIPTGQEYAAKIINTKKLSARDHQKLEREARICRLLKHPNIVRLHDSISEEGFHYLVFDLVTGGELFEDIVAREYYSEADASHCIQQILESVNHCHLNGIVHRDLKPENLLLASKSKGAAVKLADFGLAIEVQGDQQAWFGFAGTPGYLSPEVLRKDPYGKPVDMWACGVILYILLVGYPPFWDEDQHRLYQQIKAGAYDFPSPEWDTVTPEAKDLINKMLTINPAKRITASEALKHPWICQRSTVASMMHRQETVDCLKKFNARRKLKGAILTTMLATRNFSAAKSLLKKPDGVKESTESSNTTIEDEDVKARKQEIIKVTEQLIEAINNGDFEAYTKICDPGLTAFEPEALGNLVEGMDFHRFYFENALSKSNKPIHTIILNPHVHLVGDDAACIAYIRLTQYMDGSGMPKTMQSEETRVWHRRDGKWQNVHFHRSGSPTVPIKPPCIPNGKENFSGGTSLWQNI

[13] = biological target: Serine/threonine-protein kinase Sgk2 (Homo sapiens) (UniProt Q9HBY8); details: Compound concentration 1000.0 nM
[14] = biological target: Serine/threonine-protein kinase PRP4 homolog (Homo sapiens) (UniProt Q13523); details: Compound concentration 1000.0 nM
[15] = biological target: Serine/threonine-protein kinase haspin (Homo sapiens) (UniProt Q8TF76); details: Compound concentration 1000.0 nM
Serine/threonine-protein kinase haspin (Homo sapiens), sequence (Q8TF76 whole entry): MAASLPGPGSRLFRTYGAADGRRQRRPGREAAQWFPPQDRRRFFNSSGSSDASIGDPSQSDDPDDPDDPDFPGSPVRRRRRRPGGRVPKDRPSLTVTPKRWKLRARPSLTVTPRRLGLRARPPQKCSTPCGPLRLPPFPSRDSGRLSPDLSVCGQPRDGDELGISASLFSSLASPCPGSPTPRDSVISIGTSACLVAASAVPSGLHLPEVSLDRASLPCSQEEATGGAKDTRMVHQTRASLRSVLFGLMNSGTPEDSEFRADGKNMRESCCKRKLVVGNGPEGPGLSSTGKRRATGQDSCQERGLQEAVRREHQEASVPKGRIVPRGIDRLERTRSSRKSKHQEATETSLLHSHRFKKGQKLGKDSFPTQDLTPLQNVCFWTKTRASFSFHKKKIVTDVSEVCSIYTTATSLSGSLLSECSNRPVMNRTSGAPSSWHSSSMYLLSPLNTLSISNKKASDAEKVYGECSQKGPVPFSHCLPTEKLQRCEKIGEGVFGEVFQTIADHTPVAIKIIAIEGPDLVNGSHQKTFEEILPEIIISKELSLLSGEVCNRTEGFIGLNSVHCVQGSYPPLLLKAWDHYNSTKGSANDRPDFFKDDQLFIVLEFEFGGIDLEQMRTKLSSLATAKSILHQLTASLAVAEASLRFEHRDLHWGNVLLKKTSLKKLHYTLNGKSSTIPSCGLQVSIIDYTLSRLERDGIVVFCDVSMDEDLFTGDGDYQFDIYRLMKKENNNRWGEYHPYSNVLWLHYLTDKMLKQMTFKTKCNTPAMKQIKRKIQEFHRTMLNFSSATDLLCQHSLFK

[16] = biological target: Phosphatidylinositol 4-kinase beta (Homo sapiens) (UniProt Q9UBF8); details: Compound concentration 1000.0 nM
[17] = biological target: Cyclin-dependent kinase-like 1 (Homo sapiens) (UniProt Q00532); details: Compound concentration 1000.0 nM
[18] = biological target: SNF-related serine/threonine-protein kinase (Homo sapiens) (UniProt Q9NRH2); details: Compound concentration 1000.0 nM
[19] = biological target: Dual specificity protein kinase CLK1 (Homo sapiens) (UniProt P49759); details: Compound concentration 1000.0 nM
[20] = biological target: Microtubule-associated serine/threonine-protein kinase 1 (Homo sapiens) (UniProt Q9Y2H9); details: Compound concentration 1000.0 nM
[21] = test system: Tyrosine-protein kinase ABL1 (Homo sapiens), P00519 [M351T]; details: Compound concentration 1000.0 nM
[22] = biological target: Receptor-type tyrosine-protein kinase FLT3 (Homo sapiens) (UniProt P36888); details: Compound concentration 1000.0 nM
[23] = test system: Mast/stem cell growth factor receptor Kit (Homo sapiens), P10721 [V559D]; details: Compound concentration 1000.0 nM
[24] = biological target: Discoidin domain-containing receptor 2 (Homo sapiens) (UniProt Q16832); details: Compound concentration 1000.0 nM
[25] = biological target: Testis-specific serine/threonine-protein kinase 1 (Homo sapiens) (UniProt Q9BXA7); details: Compound concentration 1000.0 nM
[26] = biological target: Serine/threonine-protein kinase 35 (Homo sapiens) (UniProt Q8TDR2); details: Compound concentration 1000.0 nM
[27] = biological target: RAC-gamma serine/threonine-protein kinase (Homo sapiens) (UniProt Q9Y243); details: Compound concentration 1000.0 nM
[28] = biological target: Serine/threonine-protein kinase N2 (Homo sapiens) (UniProt Q16513); details: Compound concentration 1000.0 nM
[29] = biological target: Phosphatidylinositol 3-kinase catalytic subunit type 3 (Homo sapiens) (UniProt Q8NEB9); details: Compound concentration 1000.0 nM
Phosphatidylinositol 3-kinase catalytic subunit type 3 (Homo sapiens), sequence (Q8NEB9 whole entry): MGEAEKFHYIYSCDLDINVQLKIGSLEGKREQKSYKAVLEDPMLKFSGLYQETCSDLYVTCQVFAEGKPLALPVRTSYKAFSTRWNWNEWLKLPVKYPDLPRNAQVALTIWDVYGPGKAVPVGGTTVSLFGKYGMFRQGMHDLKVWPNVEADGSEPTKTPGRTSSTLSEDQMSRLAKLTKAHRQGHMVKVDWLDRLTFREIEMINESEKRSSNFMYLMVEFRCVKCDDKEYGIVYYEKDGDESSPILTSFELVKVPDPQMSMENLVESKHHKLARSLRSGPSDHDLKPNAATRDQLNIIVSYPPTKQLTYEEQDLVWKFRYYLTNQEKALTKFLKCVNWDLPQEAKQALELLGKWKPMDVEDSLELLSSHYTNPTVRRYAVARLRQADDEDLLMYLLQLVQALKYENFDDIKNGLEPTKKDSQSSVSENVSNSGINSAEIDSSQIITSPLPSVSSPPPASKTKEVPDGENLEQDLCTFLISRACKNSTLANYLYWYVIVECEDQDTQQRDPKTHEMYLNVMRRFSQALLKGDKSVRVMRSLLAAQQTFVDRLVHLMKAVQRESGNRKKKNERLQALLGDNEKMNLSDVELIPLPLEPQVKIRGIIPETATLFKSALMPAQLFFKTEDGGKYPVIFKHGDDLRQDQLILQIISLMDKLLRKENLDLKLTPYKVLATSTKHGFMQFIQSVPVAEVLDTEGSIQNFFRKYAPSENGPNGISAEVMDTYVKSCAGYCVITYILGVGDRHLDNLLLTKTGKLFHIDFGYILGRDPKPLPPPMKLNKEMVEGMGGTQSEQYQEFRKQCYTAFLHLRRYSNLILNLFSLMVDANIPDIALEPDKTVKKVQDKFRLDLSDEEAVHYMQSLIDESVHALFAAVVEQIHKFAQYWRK

[30] = biological target: Aurora kinase C (Homo sapiens) (UniProt Q9UQB9); details: Compound concentration 1000.0 nM
Aurora kinase C (Homo sapiens), sequence (Q9UQB9 whole entry): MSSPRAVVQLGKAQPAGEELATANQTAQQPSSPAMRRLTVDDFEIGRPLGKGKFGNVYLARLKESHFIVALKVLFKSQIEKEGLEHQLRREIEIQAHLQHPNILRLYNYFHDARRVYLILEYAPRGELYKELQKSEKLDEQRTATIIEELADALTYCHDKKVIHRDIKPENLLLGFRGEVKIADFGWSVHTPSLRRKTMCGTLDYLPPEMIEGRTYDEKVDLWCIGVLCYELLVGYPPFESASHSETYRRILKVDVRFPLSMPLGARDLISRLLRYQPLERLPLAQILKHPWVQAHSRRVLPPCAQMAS

[31] = biological target: Tyrosine-protein kinase ABL1 (Homo sapiens) (UniProt P00519); details: Compound concentration 1000.0 nM
[32] = biological target: MAP/microtubule affinity-regulating kinase 4 (Homo sapiens) (UniProt Q96L34); details: Compound concentration 1000.0 nM
[33] = biological target: Angiopoietin-1 receptor (Homo sapiens) (UniProt Q02763); details: Compound concentration 1000.0 nM
[34] = biological target: Tyrosine-protein kinase FRK (Homo sapiens) (UniProt P42685); details: Compound concentration 1000.0 nM
[35] = test system: Receptor-type tyrosine-protein kinase FLT3 (Homo sapiens), P36888 [D835Y]; details: Compound concentration 1000.0 nM
[36] = biological target: Macrophage colony-stimulating factor 1 receptor (Homo sapiens) (UniProt P07333); details: Compound concentration 1000.0 nM
[37] = biological target: Tyrosine-protein kinase TXK (Homo sapiens) (UniProt P42681); details: Compound concentration 1000.0 nM
[38] = biological target: Cyclin-dependent kinase 7 (Homo sapiens) (UniProt P50613); details: Compound concentration 1000.0 nM
[39] = biological target: Tyrosine-protein kinase receptor TYRO3 (Homo sapiens) (UniProt Q06418); details: Compound concentration 1000.0 nM
Tyrosine-protein kinase receptor TYRO3 (Homo sapiens), sequence (Q06418 whole entry): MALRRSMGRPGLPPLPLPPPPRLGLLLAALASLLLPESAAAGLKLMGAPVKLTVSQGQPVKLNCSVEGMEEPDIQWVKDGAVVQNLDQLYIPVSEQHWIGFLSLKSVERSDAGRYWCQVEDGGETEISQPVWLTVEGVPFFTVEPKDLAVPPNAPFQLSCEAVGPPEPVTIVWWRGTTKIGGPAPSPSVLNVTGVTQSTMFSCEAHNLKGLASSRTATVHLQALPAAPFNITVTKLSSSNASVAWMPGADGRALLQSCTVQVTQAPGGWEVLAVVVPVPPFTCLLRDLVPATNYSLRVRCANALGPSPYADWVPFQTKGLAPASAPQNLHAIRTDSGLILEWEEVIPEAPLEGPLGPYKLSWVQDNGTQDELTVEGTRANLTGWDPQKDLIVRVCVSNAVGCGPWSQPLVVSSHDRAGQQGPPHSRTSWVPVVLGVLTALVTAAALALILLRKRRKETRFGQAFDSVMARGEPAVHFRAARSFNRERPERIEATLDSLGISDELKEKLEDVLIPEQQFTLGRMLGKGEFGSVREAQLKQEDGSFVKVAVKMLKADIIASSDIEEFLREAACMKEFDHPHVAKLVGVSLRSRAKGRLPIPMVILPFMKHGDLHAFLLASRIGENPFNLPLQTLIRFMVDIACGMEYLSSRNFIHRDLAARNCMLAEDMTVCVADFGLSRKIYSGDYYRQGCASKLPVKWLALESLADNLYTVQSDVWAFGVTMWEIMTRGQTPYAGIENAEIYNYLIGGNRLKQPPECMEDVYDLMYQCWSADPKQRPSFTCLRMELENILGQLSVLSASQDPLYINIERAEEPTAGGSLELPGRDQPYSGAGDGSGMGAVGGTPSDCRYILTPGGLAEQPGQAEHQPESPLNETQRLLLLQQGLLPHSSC

[40] = biological target: RAF proto-oncogene serine/threonine-protein kinase (Homo sapiens) (UniProt P04049); details: Compound concentration 1000.0 nM
RAF proto-oncogene serine/threonine-protein kinase (Homo sapiens), sequence (P04049 whole entry): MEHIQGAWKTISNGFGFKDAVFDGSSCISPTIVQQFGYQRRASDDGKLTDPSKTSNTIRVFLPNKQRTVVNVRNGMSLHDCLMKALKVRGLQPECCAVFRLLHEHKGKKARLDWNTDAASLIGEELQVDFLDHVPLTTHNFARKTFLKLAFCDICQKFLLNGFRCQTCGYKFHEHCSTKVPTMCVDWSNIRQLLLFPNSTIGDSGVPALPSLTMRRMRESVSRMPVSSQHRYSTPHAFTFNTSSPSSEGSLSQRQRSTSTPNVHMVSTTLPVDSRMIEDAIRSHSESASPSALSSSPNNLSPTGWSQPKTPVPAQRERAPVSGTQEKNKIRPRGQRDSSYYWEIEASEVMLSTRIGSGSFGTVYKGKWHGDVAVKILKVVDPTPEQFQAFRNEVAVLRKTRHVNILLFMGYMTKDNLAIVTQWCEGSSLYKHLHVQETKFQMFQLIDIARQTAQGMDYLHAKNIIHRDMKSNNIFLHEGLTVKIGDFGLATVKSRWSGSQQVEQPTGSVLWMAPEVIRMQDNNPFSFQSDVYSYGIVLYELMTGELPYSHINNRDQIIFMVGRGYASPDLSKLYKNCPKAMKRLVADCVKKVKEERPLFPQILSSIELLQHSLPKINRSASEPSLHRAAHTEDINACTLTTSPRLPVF

[41] = biological target: Receptor-type tyrosine-protein kinase FLT3 (Homo sapiens) (UniProt P36888); details: Compound concentration 1000.0 nM; remark: listed apart in the source
[42] = biological target: GABA-A receptor; anion channel (Rattus norvegicus) (UniProt O09028+P15431+P18506+P18508+P19969+P20236+P23574+P23576+P28471+P28473+P30191+P62813+P63079+P63138+Q91ZM7+Q9ES14); details: Compound concentration 10.0 uM
[43] = biological target: Tyrosine-protein kinase Blk (Homo sapiens) (UniProt P51451); details: Compound concentration 1000.0 nM

Q: With `Nc1cnc(N2CCc3cc(S(=O)(=O)Nc4c(F)cc(Cl)cc4F)cc(N4CCCC4=O)c32)nc1` as the compound, how does the residual activity [1] read?
A: 100%

Q: What about the residual activity [2] of the same compound?
A: 92%

Q: And the residual activity [3]?
A: 85%

Q: What about the residual activity [4] of the same compound?
A: 100%

Q: And the residual activity [5]?
A: 71%

Q: And the residual activity [6]?
A: 100%

Q: What about the residual activity [7] of the same compound?
A: 100%

Q: What about the residual activity [8] of the same compound?
A: 100%

Q: And the residual activity [9]?
A: 96%

Q: And the residual activity [10]?
A: 100%

Q: And the residual activity [11]?
A: 100%

Q: And the residual activity [12]?
A: 100%

Q: What about the residual activity [13] of the same compound?
A: 76%

Q: And the residual activity [14]?
A: 76%

Q: And the residual activity [15]?
A: 100%

Q: What about the residual activity [16] of the same compound?
A: 93%

Q: What about the residual activity [17] of the same compound?
A: 85%

Q: And the residual activity [18]?
A: 100%

Q: What about the residual activity [19] of the same compound?
A: 85%

Q: What about the residual activity [20] of the same compound?
A: 97%

Q: What about the residual activity [21] of the same compound?
A: 100%

Q: And the residual activity [22]?
A: 91%

Q: What about the residual activity [23] of the same compound?
A: 100%

Q: And the residual activity [24]?
A: 100%

Q: And the residual activity [25]?
A: 100%

Q: What about the residual activity [26] of the same compound?
A: 100%

Q: What about the residual activity [27] of the same compound?
A: 94%

Q: And the residual activity [28]?
A: 100%

Q: What about the residual activity [29] of the same compound?
A: 100%

Q: And the residual activity [30]?
A: 100%

Q: And the residual activity [31]?
A: 100%

Q: And the residual activity [32]?
A: 79%

Q: What about the residual activity [33] of the same compound?
A: 78%

Q: And the residual activity [34]?
A: 62%

Q: What about the residual activity [35] of the same compound?
A: 100%

Q: What about the residual activity [36] of the same compound?
A: 100%

Q: What about the residual activity [37] of the same compound?
A: 83%

Q: And the residual activity [38]?
A: 100%

Q: What about the residual activity [39] of the same compound?
A: 100%

Q: And the residual activity [40]?
A: 79%

Q: And the residual activity [41]?
A: 81%

Q: What about the inhibition [42] of the same compound?
A: 20.5%

Q: And the residual activity [43]?
A: 100%

Q: With `Cn1nc(C(F)(F)F)cc1-c1cnc(N2CCc3cc(S(=O)(=O)Nc4c(F)cc(Cl)cc4F)cc(N4CCCC4=O)c32)nc1` [TP-020] as the compound, how does the residual activity [1] read?
A: 61%

Q: What about the residual activity [2] of the same compound?
A: 81%

Q: What about the residual activity [3] of the same compound?
A: 100%

Q: And the residual activity [4]?
A: 95%

Q: And the residual activity [5]?
A: 100%

Q: What about the residual activity [6] of the same compound?
A: 100%

Q: And the residual activity [7]?
A: 100%

Q: And the residual activity [8]?
A: 98%

Q: And the residual activity [9]?
A: 32%

Q: And the residual activity [10]?
A: 100%

Q: What about the residual activity [11] of the same compound?
A: 93%

Q: And the residual activity [12]?
A: 99%

Q: What about the residual activity [13] of the same compound?
A: 100%

Q: What about the residual activity [14] of the same compound?
A: 100%

Q: What about the residual activity [15] of the same compound?
A: 68%

Q: And the residual activity [16]?
A: 77%

Q: What about the residual activity [17] of the same compound?
A: 77%

Q: And the residual activity [18]?
A: 87%

Q: What about the residual activity [19] of the same compound?
A: 87%

Q: What about the residual activity [20] of the same compound?
A: 100%

Q: What about the residual activity [21] of the same compound?
A: 92%

Q: And the residual activity [22]?
A: 100%

Q: And the residual activity [23]?
A: 99%

Q: And the residual activity [24]?
A: 80%

Q: And the residual activity [25]?
A: 100%

Q: What about the residual activity [26] of the same compound?
A: 100%

Q: And the residual activity [27]?
A: 84%

Q: And the residual activity [28]?
A: 82%

Q: What about the residual activity [29] of the same compound?
A: 78%

Q: What about the residual activity [30] of the same compound?
A: 100%

Q: What about the residual activity [31] of the same compound?
A: 73%

Q: And the residual activity [32]?
A: 88%

Q: And the residual activity [33]?
A: 99%

Q: What about the residual activity [34] of the same compound?
A: 83%

Q: And the residual activity [35]?
A: 100%

Q: And the residual activity [36]?
A: 82%

Q: And the residual activity [37]?
A: 100%

Q: And the residual activity [38]?
A: 75%

Q: What about the residual activity [39] of the same compound?
A: 100%

Q: What about the residual activity [40] of the same compound?
A: 100%

Q: And the residual activity [41]?
A: 85%

Q: And the inhibition [42]?
A: 7.89%

Q: And the residual activity [43]?
A: 100%
